Experiments:
[1] = tested on: seeds of thale cress (Arabidopsis thaliana, Col-0); assay: Thale cress seed germination test; type: in vivo
Method: Seeds of thale cress (Arabidopsis thaliana, Col-0) were immersed in 500 μL of an aqueous solution of 70% ethanol for 30 minutes, subsequently in 500 μL of a 100% ethanol solution for 1 minute, washed five times in 1 mL of distilled water, then immersed in distilled water and, in a dark place, vernalized at 4° C. for 3 days. A solution of the sample in methanol was put in a 1.5 mL-microtube, and methanol was removed therefrom under reduced pressure. An aqueous solution of 0.5% agar (containing ½ MS medium inorganic salts) at 70° C. was added thereto and stirred, and subsequently the obtained mixture was placed in a 96-well plate to prepare the medium containing the sample. All samples were prepared so as to have a concentration of 3 μM of the compound in Examples 1 to 9 and Comparative Example 1. Further, when ABA is applied, the ABA concentration was adjusted to 0.3 μM. 20 to 30 vernalized seeds of thale cress were planted in each well and cultured at 22° C. under continuous light to monitor the number of seeds germinated over time. The germination rate was calculated by the following formula (1). Note that those cultured in medium prepared using methanol in the same manner were used as controls. […] Germination rate (%)=Number of seeds germinated/Number of seeds planted×100 (1)
The same test was carried out as in Test Example 1 with the concentrations of the compound of Example 1 for treatment varying from 0.3 μM to 30 μM.
Similarly, the same test was carried out with the concentrations of the compound of Example 2 for treatment varying from 0.3 μM to 30 μM.
The same test was carried out as in Test Example 2 with the concentrations of the compounds for treatment varying from 0.3 μM to 3 μM to compare the recovery effects on seed germination rate of the compound of Example 1 and the compound of Comparative Example 1.

[2] = tested on: thale cress (Arabidopsis thaliana, Col-0) seedlings; assay: Thale cress growth test; type: in vivo; conditions: 50 μM compound co-applied with 5 μM ABA, sprayed once a day; three weeks' culture
Method: Seeds of thale cress (Arabidopsis thaliana, Col-0) were sequentially immersed for 1 minute respectively in 500 μL of an aqueous solution of 5% bleach+1% SDS, 500 μL of a 70% aqueous solution of ethanol and 500 μL of a 70% aqueous solution of ethanol, washed five times in 1 mL of sterilized water, and then suspended in a 0.1% aqueous solution of agar. 25 mL each of germination medium (containing ½ MS medium inorganic salts) sterilized in an autoclave was added to a sterilized plastic petri dish, in which 60 to 80 seeds suspended in the 0.1% aqueous solution of agar were planted and, in a dark place, the seeds were vernilized at 4° C. for 3 days. The seeds were cultured at 22° C. under continuous light for 10 days. 40 g […] of sterilized soil (organic culture soil:vermiculite=1:1) was added to a plastic pot (50 mm×50 mm×50 mm, 35 mm bottom surface×35 mm height). Six plastic pots thus provided were placed in a 3000 mL-tray, 300 mL (depth 10 mm) of an aqueous solution of 1000-fold diluted HYPONeX (tradename (registered trademark), product of HYPONeX JAPAN CORP., LTD.) was added thereto and five roots each of thale cress seedlings were transplanted from the plastic petri dish. The seedlings were cultured at 22° C. under conditions of 16 hour light period-8 hour dark period, and 1 mL of an aqueous solution (prepared so as the final concentration of the compound of Example 7 to be 50 μM) of 0.1% DMSO (containing the compound of Example 7)+0.1% Approach BI (tradename (registered trademark), product of Kao Corporation) was sprayed once a day. Further, 300 mL of an aqueous solution of 2000-fold diluted HYPONeX was added every week. The same treatment as above was carried out using the compound of Comparative Example 1. Note that the seedlings, to which 1 mL of an aqueous solution of 0.1% DMSO+0.1% Approach BI without containing the above compound was sprayed once a day, were used as controls. […]

recombined PYL5 = molecular target: T1, recombined PYL5 (Arabidopsis thaliana, UniProt Q9FLB1); assay: Bonding affinity measurement using an isothermal titration calorimeter; type: binding, thale cress; conditions: ITC, 20° C., sodium phosphate buffer
T1 construct: 6xHis (N); made in house; host or cells: Escherichia coli BL21-codonplus(DE3)-RIPL
T1 sequence (Q9FLB1 1-203): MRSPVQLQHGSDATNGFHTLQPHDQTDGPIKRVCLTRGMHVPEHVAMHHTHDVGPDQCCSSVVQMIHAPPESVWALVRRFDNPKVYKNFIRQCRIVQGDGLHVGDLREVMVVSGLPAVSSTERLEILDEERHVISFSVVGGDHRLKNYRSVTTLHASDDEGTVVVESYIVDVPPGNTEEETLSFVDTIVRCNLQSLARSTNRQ
Method: A sodium phosphate buffer solution of a recombined PYL5 was prepared in the same procedure as in Test Example 5, and put in a reaction cell of an isothermal titration calorimeter (GE Healthcare, MicroCal iTC200), and a sodium phosphate buffer solution of the compound of Example 1 was put in the syringe. Then, the calorimeter was set to 20° C. and the measurement was carded out. The same measurement as above was also carried out for the compounds of Examples 7 to 9.

[3] = tested on: lettuce (Lactuca saliva) seeds; assay: Lettuce seed germination test; type: in vivo; conditions: co-applied with ABA
[4] = tested on: bok choy (Brassica rapa var. chinensis) seeds; assay: Bok choy seed germination test; type: in vivo; conditions: co-applied with ABA
[5] = 3 μM compound co-applied with 0.3 μM ABA

| SMILES | Germination rate (%) 24 Hours later [1, 5] [%] | Germination rate (%) 36 Hours later [1, 5] [%] | Germination rate (%) 48 Hours later [1, 5] [%] | Germination rate (%) 60 Hours later [1, 5] [%] | Germination rate (%) 24 Hours later ([1]; compound alone, 3 μM) [%] | Germination rate (%) 36 Hours later ([1]; compound alone, 3 μM) [%] | Germination rate (%) 48 Hours later ([1]; compound alone, 3 μM) [%] | Germination rate (%) 60 Hours later ([1]; compound alone, 3 μM) [%] | Growth suppression effect of ABA on thale cress [2] | Kd (recombined PYL5) [nM] | ΔG (recombined PYL5) [kcal/mol] | ΔH (recombined PYL5) [kcal/mol] | −TΔS (recombined PYL5) [kcal/mol] | Recovery of seed germination rate decreased by ABA ([1]; compound 0.3 μM to 30 μM co-applied with ABA) | Recovery of seed germination rate decreased by ABA [3] | Recovery of seed germination rate decreased by ABA [4] |
| --- | --- | --- | --- | --- | --- | --- | --- | --- | --- | --- | --- | --- | --- | --- | --- | --- |
| CCCCCCSC1=C(C)[C@](O)(/C=C/C(C)=C\C(=O)O)C(C)(C)CC1=O [Comparative Example 1, 3′-hexylsulfanyl-abscisic acid, reference compound] | 0 | 28 | 67 | 89 | 0 | 85 | 100 | 100 | the growth suppression effect of ABA was not substantially improved | 480 ± 100 | -9.6 ± 0.1 | -9.7 ± 0.2 | 1.2 |  |  |  |
| CC1=C[C@@H](OCC#Cc2cccc3ccccc23)CC(C)(C)[C@@]1(O)/C=C/C(C)=C\C(=O)O [Example 2] | 9 | 22 | 53 | 89 | 11 | 27 | 77 | 100 |  |  |  |  |  | seed germination rates decreased by ABA are recovered | recovered the seed germination rates once decreased by ABA | recovered the seed germination rates once decreased by ABA |

— US10125095B2, “Abscisic acid derivative” (NATIONAL UNIVERSITY CORPORATION SHIZUOKA UNIVERSITY, priority 2014, dated 2018)
